One assay concerns the target T1, AtGID1c (Arabidopsis thaliana, UniProt Q940G6).
T1 construct: made in house; host or cells: E. coli
T1 sequence (Q940G6 1-344): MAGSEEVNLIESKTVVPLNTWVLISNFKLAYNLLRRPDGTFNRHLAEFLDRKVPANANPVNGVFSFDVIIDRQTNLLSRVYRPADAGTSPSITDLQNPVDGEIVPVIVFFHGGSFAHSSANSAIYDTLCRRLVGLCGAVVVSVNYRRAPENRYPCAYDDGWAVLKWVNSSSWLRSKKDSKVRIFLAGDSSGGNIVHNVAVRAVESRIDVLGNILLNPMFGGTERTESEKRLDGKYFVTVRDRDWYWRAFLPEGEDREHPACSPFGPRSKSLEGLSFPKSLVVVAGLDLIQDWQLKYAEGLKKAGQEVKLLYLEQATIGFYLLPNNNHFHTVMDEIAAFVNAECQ
Nature of the assay: Competitive ability of GA in AtGID1-GA binding (AtGID1c). The procedure: (§1) In the gibberellin-binding assay, [1,2,16,17-^3H4]16,17-dihydro-GA4 was used as a labeled GA4. In vitro GA-binding assays were carried out using previous methods with some modifications (Nakajima, M. et al., Biochem. Biophys. Res. Comm. 241, 782-786 (1997)). The purified recombinant GID1 protein (400 pmol) was dissolved in 300 μl of binding buffer [20 mM Tris-HCl (pH 7.6), 5 mM 2-mercaptoethanol, and 0.1 M NaCl], and incubated with 100 μl of ^3H4-16,17-dihydroGA4 (6 pmol) for two hours at 25° C., either in the absence of non-labeled GA4 (total binding) or in the presence of 833-fold excess non-labeled GA4 (total non-specific binding). Then, 0.1 ml of the reaction mixture was loaded onto a NAP-5 column (Amersham Biosciences, Piscataway, N.J.). The eluate of the binding buffer (0.6 ml) was discarded, the subsequent eluate (0.2 ml) was collected, and the radioactivity was measured. The specific binding activity, reflecting the number of displaceable GA binding sites, was calculated by subtracting the amount of nonspecific binding from the amount of total binding. The same as above can also be carried out for other GAs.
(§2) Specifically, the coding region of the AtGID1 gene was amplified by PCR using specific primers designed based on the full-length cDNA sequence of the AtGID1 gene and having appropriate restriction sites at each end. After confirmation by sequence analysis, each cDNA fragment was ligated into pET32a vector (Novagen/Merck Biosciences, Madison, Wis., USA) or pGEX-4T-2 vector (Amersham Biosciences, Piscataway, N.J., USA; currently, a part of GE Healthcare). The production of recombinant proteins was confirmed by SDS-PAGE; vector cassettes were used as negative controls. GA binding assays were carried out similarly as described above using [1,2,16,17-^3H4]-16,17-dihydro-GA4 (4.55 TBq/mmol), which was custom-made by DuPont/NEN (Boston, Mass., USA). Non-labeled GA4 (1.25 mM) was used to measure non-specific binding. Saturation experiments for the kinetic analysis were carried out using ten concentrations of 16,17-dihydro-GA4 within the range of 25 to 1,500 nM. Competition assays were performed using [1,2,16,17-^3H4]-16,17-dihydro-GA4 at 15 nM and five concentrations of the non-labeled competitor. Recombinant RGA and GAI proteins were prepared using pET32a by a previously described method.
(§3) The ligand selectivity of each AtGID1 was examined by observing the competitive inhibition, by the addition of GA to the assay mixtures, of the binding between the recombinant proteins and tritiated 16,17-dihydro-GA4 (Table 2). The ligand selectivity was evaluated using the concentration of GA that inhibits 50% of the tracer (15 nM) binding (IC50 value).

The target of assay [1] is T2, AtGID1b (Arabidopsis thaliana, UniProt Q9LYC1).
T2 construct: made in house; host or cells: E. coli
T2 sequence (Q9LYC1 1-358): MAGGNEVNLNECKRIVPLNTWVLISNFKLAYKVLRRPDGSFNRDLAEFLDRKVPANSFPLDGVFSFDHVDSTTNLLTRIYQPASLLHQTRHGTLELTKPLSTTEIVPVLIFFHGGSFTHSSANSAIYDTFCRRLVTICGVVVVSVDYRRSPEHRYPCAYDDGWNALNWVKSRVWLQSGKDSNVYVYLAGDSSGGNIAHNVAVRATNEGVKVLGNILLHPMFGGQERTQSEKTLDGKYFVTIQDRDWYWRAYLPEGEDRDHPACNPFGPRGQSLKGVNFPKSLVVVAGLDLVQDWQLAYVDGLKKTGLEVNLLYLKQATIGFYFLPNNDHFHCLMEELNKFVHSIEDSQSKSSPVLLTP
Nature of the assay: Competitive ability of GA in AtGID1-GA binding (AtGID1b). The method, then:
as §1, §2, §3

Assay [2] addresses T2, AtGID1b. Nature of the assay: Scatchard analysis of GA binding of AtGID1b. The following applies: equilibrium conditions. The procedure: Panels A) to C) depict the results of Scatchard plot analyses for the GA binding of AtGID1. Results for AtGID1a (A), AtGID1b (B), and AtGID1c (C) are shown. The Kd values for 16,17-dihydro-GA4 was determined by adding various concentrations of GA to the assay mixture. Standard deviation (SD) was determined from these three independent measurements. The insets show time-course characteristics for the GA binding of AtGID1 and replacement (arrow) using an excess amount of non-labeled GA4 (0.125 mM). Panels D) to F) depict the GA binding activities of AtGID1 under different pH conditions. Results for AtGID1a (D), AtGID1b (E), and AtGID1c (F) are shown. The non-specific binding activity (UB) was determined by adding 0.125 mM GA4 to the assay solution, and this was subtracted from the total binding activity (B) to determine the specific binding activity (B-UB).
Specifically, the coding region of the AtGID1 gene was amplified by PCR using specific primers designed based on the full-length cDNA sequence of the AtGID1 gene and having appropriate restriction sites at each end. […]
The kinetics, ligand selectivity, and pH dependence of GA binding for the three AtGID1s identified as described above were examined using the tritiated GA4 derivative 16,17-dihydro-GA4. […] Furthermore, the kinetics of GA binding of each AtGID1 was analyzed under equilibrium conditions of GA at various concentrations.

The mark [3] stands for this setting: tracer 15 nM, mean of at least two measurements.

Turning to `CC1C[C@]23C[C@H]1CCC2[C@]12CC[C@H](O)[C@](C)(C(=O)O1)[C@H]2[C@@H]3C(=O)O` (some centres unmarked) [H2-GA4, 16,17-dihydro-GA4], the “relative value, taking the value for GA4 as 100” value on AtGID1c is recorded as “(6) %”; on AtGID1b [1], “(8) %”. Moreover, the IC50 came to 5 µM on AtGID1c (setting [3]) and 400 nM on AtGID1b [1] (setting [3]). Besides, the Kd at AtGID1b [2] came out at 480 nM.

As usually defined, the IC50 is the concentration that inhibits the measured activity by half. Low readings indicate greater potency, high ones weaker potency. As a reminder, the Kd is the equilibrium constant for the complex coming apart.

For the origin of these results see patent US7915050B2, “Regulatory genes for plant differentiation and growth, and use of the same” (National University Corporation Nagoya University, priority 2005, dated 2011).
